According to patent publication US12692254B2, “Benzimidazole inhibitors of PAD enzymes” (BRISTOL-MYERS SQUIBB COMPANY, priority 2018, dated 2026):

Biological target: human PAD4 (hPAD4) (Homo sapiens, UniProt Q9UM07)
Experiment: RFMS human PAD4 functional assay (rapid-fire mass spectrum)
Type: biochemical
Settings: 5 nM hPAD4 enzyme, 250 μM BAEE, 50 μM Calcium; 30 min preincubation, 90 min reaction at 37° C.
Procedure, shortened: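 PAD4 (10 nM) preincubated 30 min with compound (top final 50 μM), then BAEE substrate added in pH 7.5 HEPES buffer with DTT, 50 μM calcium, TPEN; 90 min at 37° C. After TCA quench, citrulline derivatized with phenyl glyoxal (4 mM final, 30 min, 37° C) and quantified by RapidFire MS against internal standard.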

human PAD4 (hPAD4), sequence (Q9UM07 whole entry): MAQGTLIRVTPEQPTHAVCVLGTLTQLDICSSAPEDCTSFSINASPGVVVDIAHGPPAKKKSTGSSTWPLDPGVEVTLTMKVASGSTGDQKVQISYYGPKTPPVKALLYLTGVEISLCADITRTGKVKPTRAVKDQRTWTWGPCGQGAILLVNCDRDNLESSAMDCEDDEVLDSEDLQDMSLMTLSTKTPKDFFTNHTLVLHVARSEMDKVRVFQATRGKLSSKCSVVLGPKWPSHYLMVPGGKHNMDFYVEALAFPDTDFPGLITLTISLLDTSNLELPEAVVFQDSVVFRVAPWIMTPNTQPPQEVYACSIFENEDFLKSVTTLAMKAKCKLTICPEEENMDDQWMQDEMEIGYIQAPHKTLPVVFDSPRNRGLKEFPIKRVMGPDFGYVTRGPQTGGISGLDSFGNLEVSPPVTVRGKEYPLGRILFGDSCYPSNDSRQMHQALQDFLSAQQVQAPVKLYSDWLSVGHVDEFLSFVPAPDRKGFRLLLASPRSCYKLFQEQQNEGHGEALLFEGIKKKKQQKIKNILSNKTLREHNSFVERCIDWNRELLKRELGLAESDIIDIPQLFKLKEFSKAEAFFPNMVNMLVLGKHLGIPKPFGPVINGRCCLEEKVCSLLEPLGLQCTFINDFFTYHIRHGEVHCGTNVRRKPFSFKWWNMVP

Row | Compound | IC50 [µM]
1 | COc1cc(C(=O)N2C[C@H]3CC[C@@H]2[C@@H]3N)cc2nc(-c3cc4cccnc4n3C)n(CC3CN(c4ncccn4)C3)c12 [Example 83, (1R,4R,7R)-2-(7-methoxy-2-{1-methyl-1H-pyrrolo[2,3-b]pyridin-2-yl}-1-{[1-(pyrimidin-2-yl)azetidin-3-yl]methyl}-1H-1,3-benzodiazole-5-carbonyl)-2-azabicyclo[2.2.1]heptan-7-amine] | 0.44
2 | COc1cc(C(=O)N2C[C@H](N)C[C@@H](F)C2)cc2nc(-c3cc4ccccc4n3CC3CC3)n(CC3CN(c4cncc(C#N)c4)C3)c12 [Example 34, 5-[3-({5-[(3R,5R)-3-amino-5-fluoropiperidine-1-carbonyl]-2-[1-(cyclopropylmethyl)-1H-indol-2-yl]-7-methoxy-1H-1,3-benzodiazol-1-yl}methyl)azetidin-1-yl]pyridine-3-carbonitrile] | 0.088
3 | COc1cc(C(=O)N2C[C@H]3CC[C@@H]2[C@@H]3N)cc2nc(-c3cc4ccc(Cl)cc4n3C)n(CC3CN(c4ccnc(C)n4)C3)c12 [Example 45, (1R,4R,7R)-2-[2-(6-chloro-1-methyl-1H-indol-2-yl)-7-methoxy-1-{[1-(2-methylpyrimidin-4-yl)azetidin-3-yl]methyl}-1H-1,3-benzodiazole-5-carbonyl]-2-azabicyclo[2.2.1]heptan-7-amine] | 0.114
4 | COc1cc(C(=O)N2C[C@H]3CC[C@@H]2[C@@H]3N)cc2nc(-c3cc4ccccc4n3CC3CC3)n(CC3CN(C(=O)c4ccc(O)cc4F)C3)c12 [Example 147, 4-[3-({5-[(1R,4R,7R)-7-amino-2-azabicyclo[2.2.1]heptane-2-carbonyl]-2-[1-(cyclopropylmethyl)-1H-indol-2-yl]-7-methoxy-1H-1,3-benzodiazol-1-yl}methyl)azetidine-1-carbonyl]-3-fluorophenol] | 0.019
5 | COc1cc(C(=O)N2C[C@H]3CC[C@@H]2[C@@H]3N)cc2nc(-c3cc4cccnc4n3CC3CC3)n(CC3CN(C(=O)CC4CC4)C3)c12 [Example 115, 1-[3-({5-[(1R,4R,7R)-7-amino-2-azabicyclo[2.2.1]heptane-2-carbonyl]-2-[1-(cyclopropylmethyl)-1H-pyrrolo[2,3-b]pyridin-2-yl]-7-methoxy-1H-1,3-benzodiazol-1-yl}methyl)azetidin-1-yl]-2-cyclopropylethan-1-one] | 0.059
6 | COc1cc(C(=O)N2C[C@H]3CC[C@@H]2[C@@H]3N)cc2nc(-c3cc4ccccc4n3CC3CC3)n(CC3CN(C(=O)c4nn[nH]n4)C3)c12 [Example 173, (1R,4R,7R)-2-{2-[1-(cyclopropylmethyl)-1H-indol-2-yl]-7-methoxy-1-{[1-(2H-1,2,3,4-tetrazole-5-carbonyl)azetidin-3-yl]methyl}-1H-1,3-benzodiazole-5-carbonyl}-2-azabicyclo[2.2.1]heptan-7-amine] | 0.05
7 | COc1cc(C(=O)N2C[C@H]3CC[C@@H]2[C@@H]3N)cc2nc(-c3cc4cccnc4n3CC3CC3)n(CC3CN(c4ccnc(C)n4)C3)c12 [Example 16, (1R,4R,7R)-2-{2-[1-(cyclopropylmethyl)-1H-pyrrolo[2,3-b]pyridin-2-yl]-7-methoxy-1-{[1-(2-methylpyrimidin-4-yl)azetidin-3-yl]methyl}-1H-1,3-benzodiazole-5-carbonyl}-2-azabicyclo[2.2.1]heptan-7-amine] | 0.048
8 | COc1nccc(N2CC(Cn3c(-c4cc5cccnc5n4CC4CC4)nc4cc(C(=O)N5C[C@H]6CC[C@@H]5[C@@H]6N)cc(OC)c43)C2)n1 [Example 20, (1R,4R,7R)-2-{2-[1-(cyclopropylmethyl)-1H-pyrrolo[2,3-b]pyridin-2-yl]-7-methoxy-1-{[1-(2-methoxypyrimidin-4-yl)azetidin-3-yl]methyl}-1H-1,3-benzodiazole-5-carbonyl}-2-azabicyclo[2.2.1]heptan-7-amine] | 0.057

More lines, now with the values ahead:

Row | IC50 [µM] | Compound
9 | 0.058 | COc1cc(C(=O)N2CC3CCC2[C@@H]3N)cc2nc(-c3cc4ccccc4n3CC3CC3)n(Cc3cn[nH]n3)c12 (stereo partly drawn) [Example 490, (7R)-2-{2-[1-(cyclopropylmethyl)-1H-indol-2-yl]-7-methoxy-1-[(2H-1,2,3-triazol-4-yl)methyl]-1H-1,3-benzodiazole-5-carbonyl}-2-azabicyclo[2.2.1]heptan-7-amine]
10 | 0.075 | COc1cc(C(=O)N2C[C@H]3CC[C@@H]2[C@@H]3N)cc2nc(-c3cc4cccnc4n3C)n(C[C@H]3CCN(c4ccnc(C#N)n4)C3)c12 [Example 210, 4-[(3S)-3-({5-[(1R,4R,7R)-7-amino-2-azabicyclo[2.2.1]heptane-2-carbonyl]-7-methoxy-2-{1-methyl-1H-pyrrolo[2,3-b]pyridin-2-yl}-1H-1,3-benzodiazol-1-yl}methyl)pyrrolidin-1-yl]pyrimidine-2-carbonitrile]
11 | 0.203 | COc1cc(C(=O)N2CC3CCC2[C@@H]3N)cc2nc(-c3cc4cccnc4n3CC3CC3)n(CC3CCN(c4ncccn4)C3)c12 (stereo in doubt) [Example 231, (1R,4R,7R)-2-{2-[1-(cyclopropylmethyl)-1H-pyrrolo[2,3-b]pyridin-2-yl]-7-methoxy-1-{[(3S)-1-(pyrimidin-2-yl)pyrrolidin-3-yl]methyl}-1H-1,3-benzodiazole-5-carbonyl}-2-azabicyclo [2.2.1]heptan-7-amine]
12 | 0.409 | COc1cc(C(=O)N2CC3CCC2[C@@H]3N)cc2nc(-c3cc4ccccc4n3CC3CC3)n(Cc3cnnn3C)c12 (stereo partly drawn) [Example 514, (7R)-2-{2-[1-(cyclopropylmethyl)-1H-indol-2-yl]-7-methoxy-1-[(1-methyl-1H-1,2,3-triazol-5-yl)methyl]-1H-1,3-benzodiazole-5-carbonyl}-2-azabicyclo[2.2.1]heptan-7-amine]
13 | 0.025 | COc1cc(C(=O)N2CC3CCC2[C@@H]3N)cc2nc(-c3cc4ccccc4n3CC3CC3)n(CC3CN(C(=O)c4ccnc(Cl)c4)C3)c12 (stereo partly drawn) [Example 424, (7R)-2-(1-{[1-(2-chloropyridine-4-carbonyl)azetidin-3-yl]methyl}-2-[1-(cyclopropylmethyl)-1H-indol-2-yl]-7-methoxy-1H-1,3-benzodiazole-5-carbonyl)-2-azabicyclo[2.2.1]heptan-7-amine]
14 | 0.045 | COc1cc(C(=O)N2CC3CCC2[C@@H]3N)cc2nc(-c3cc4cccnc4n3CC3CC3)n(Cc3cnn(CC#N)c3)c12 (stereo partly drawn) [Example 390, 2-[4-({5-[(7R)-7-amino-2-azabicyclo[2.2.1]heptane-2-carbonyl]-2-[1-(cyclopropylmethyl)-1H-pyrrolo[2,3-b]pyridin-2-yl]-7-methoxy-1H-1,3-benzodiazol-1-yl}methyl)-1H-pyrazol-1-yl]acetonitrile]
15 | 0.041 | COc1cc(C(=O)N2CC3CCC2[C@@H]3N)cc2nc(-c3cc4cccnc4n3CC3CC3)n(Cc3cnn(-c4cncc(Cl)c4)c3)c12 (stereo partly drawn) [Example 383, (7R)-2-(1-{[1-(5-chloropyridin-3-yl)-1H-pyrazol-4-yl]methyl}-2-[1-(cyclopropylmethyl)-1H-pyrrolo[2,3-b]pyridin-2-yl]-7-methoxy-1H-1,3-benzodiazole-5-carbonyl)-2-azabicyclo[2.2.1]heptan-7-amine]
16 | 0.02 | COc1cc(C(=O)N2C[C@H]3CC[C@@H]2[C@@H]3N)cc2nc(-c3cc4cccnc4n3CC3CC3)n(C[C@H]3CCNC3)c12 [Example 263, (1R,4R,7R)-2-{2-[1-(cyclopropylmethyl)-1H-pyrrolo[2,3-b]pyridin-2-yl]-7-methoxy-1-{[(3S)-pyrrolidin-3-yl]methyl}-1H-1,3-benzodiazole-5-carbonyl}-2-azabicyclo[2.2.1]heptan-7-amine]
